These results are taken from BindingDB's records for doi:10.1126/science.abf1611 (Sichuan University, 2021).

For test [1], the target named is T1, Replicase polyprotein 1ab (Severe acute respiratory syndrome coronavirus 2, UniProt P0DTD1).
The target in test [2] is T1, Replicase polyprotein 1ab. Nature of the test: The enzymatic inhibition assay.
Experimental: The enzymatic inhibition assay was carried out with a final concentration of 100 nM recombinant SARS-CoV-2 Mpro and 20 μM FRET substrate. […] The initial velocities were calculated from the first 1 min of each reaction curve. The IC50 values were calculated using a dose-response model in GraphPad Prism 8.0 software. All experiments were performed in triplicate, and the values are presented as mean ± standard deviation (SD).
Test [3] has as its target T1, Replicase polyprotein 1ab. Kind of test: scanning fluorimetry assay of HPAEpiC cells.
Experimental: The differential scanning fluorimetry (DSF) assay was carried out on a CFX96 real-time PCR Detection System (Bio-Rad). […] The Mpro protein (final concentration: 2 μM) was pre-incubated with 40 μM of compounds for 30 min. […] The melt temperature (Tm) was calculated by using a Boltzmann model in GraphPad Prism 8.0 software. The thermal shift (ΔTm) was calculated using the equation ΔTm=Tm(compound)-Tm(DMSO). All experiments were performed in triplicate, and the values are presented as mean ± SD. HPAEpiC cells are used.

Where “and” joins values, the source holds several entries; their conditions need not be identical. Equal entries are not always repeated.

In test [1], `CC1(C)[C@@H]2[C@H](C(=O)N[C@H](C=O)C[C@@H]3CCNC3=O)N(C(=O)COc3ccc4ccccc4c3)C[C@@H]21` [11b] showed an EC50 of 0.075 µM. In addition, the IC50 in test [2] is 0.052 µM and 0.027 µM.

In turn, `CC1(C)[C@@H]2[C@H](C(=O)N[C@H](C=O)C[C@@H]3CCNC3=O)N(C(=O)c3ccc4ccccc4c3)C[C@@H]21` [MI-01] registered an IC50 in test [2] of 0.453 µM. Compound `CC1(C)[C@@H]2[C@H](C(=O)N[C@H](C=O)C[C@@H]3CCNC3=O)N(C(=O)CCc3cccc(F)c3)C[C@@H]21` [MI-03] gave a concentration for half-maximal inhibition (IC50) in test [2] of 0.017 µM. For `CC1(C)[C@@H]2[C@H](C(=O)N[C@H](C=O)C[C@@H]3CCNC3=O)N(C(=O)COc3cc(F)cc(F)c3)C[C@@H]21` [MI-04], the midpoint of inhibition in test [2], the IC50, lay at 0.019 µM. With `CC1(C)[C@@H]2[C@H](C(=O)N[C@H](C=O)C[C@@H]3CCNC3=O)N(C(=O)COc3ccc(F)c(F)c3)C[C@@H]21` [MI-05], the midpoint of inhibition in test [2], the IC50, lay at 0.013 µM.

As for `COc1ccc(OCC(=O)N2C[C@H]3[C@@H]([C@@H]2C(=O)N[C@H](C=O)C[C@@H]2CCNC2=O)C3(C)C)cc1OC` [MI-06], 0.015 µM corresponded to half-maximal inhibition in test [2] (IC50). Still for that read-out and setting: under `CC1(C)[C@@H]2[C@H](C(=O)N[C@H](C=O)C[C@@H]3CCNC3=O)N(C(=O)COc3ccc(C(F)(F)F)cc3)C[C@@H]21` [MI-07] stands 0.043 µM. On the same count and under the same terms, the figure for `COc1ccc(OCC(=O)N2C[C@H]3[C@@H]([C@@H]2C(=O)N[C@H](C=O)C[C@@H]2CCNC2=O)C3(C)C)cc1F` [MI-08] is 0.037 µM; for `CC1(C)[C@@H]2[C@H](C(=O)N[C@H](C=O)C[C@@H]3CCNC3=O)N(C(=O)COc3ccc(Cl)c(Br)c3)C[C@@H]21` [MI-10] it is 0.051 µM. In test [2], `CC1(C)[C@@H]2[C@H](C(=O)N[C@H](C=O)C[C@@H]3CCNC3=O)N(C(=O)COc3ccc(Br)cc3Cl)C[C@@H]21` [MI-11] had an IC50 of 0.013 µM. `CC1(C)[C@@H]2[C@H](C(=O)N[C@H](C=O)C[C@@H]3CCNC3=O)N(C(=O)COc3ccc(Cl)cc3)C[C@@H]21` [MI-12]: the half-maximal effective concentration (EC50) in test [1] stood at 0.097 µM; in test [3], 0.0073 µM. The compound also yielded an IC50 in test [2] of 0.019 µM. For the compound `CC1(C)[C@@H]2[C@H](C(=O)N[C@H](C=O)C[C@@H]3CCNC3=O)N(C(=O)COc3ccc(Cl)c(Cl)c3)C[C@@H]21` [MI-13], the half-maximal inhibitory concentration (IC50) in test [2] came out at 0.012 µM. On to `CC1(C)[C@@H]2[C@H](C(=O)N[C@H](C=O)C[C@@H]3CCNC3=O)N(C(=O)COc3ccc(Cl)cc3Cl)C[C@@H]21` [MI-14], for which the EC50 in test [1] worked out at 0.085 µM; in test [3], 0.0003 µM. This compound came in with a half-maximal inhibitory concentration (IC50) in test [2] of 0.013 µM. `O=C[C@H](C[C@@H]1CCNC1=O)NC(=O)[C@H]1[C@@H]2CCC[C@H]2CN1C(=O)c1cccnc1` [MI-15]: in test [2], the IC50 was determined as 0.749 µM. The same measure, in the same setting: the figure for `O=C[C@H](C[C@@H]1CCNC1=O)NC(=O)[C@H]1[C@@H]2CCC[C@H]2CN1C(=O)c1cc2ccccc2[nH]1` [MI-16] is 0.153 µM; for `O=C[C@H](C[C@@H]1CCNC1=O)NC(=O)[C@H]1[C@@H]2CCC[C@H]2CN1C(=O)c1cc2ccccn2n1` [MI-17] it is 0.299 µM. `O=C[C@H](C[C@@H]1CCNC1=O)NC(=O)[C@H]1[C@@H]2CCC[C@H]2CN1C(=O)/C=C/c1ccccc1` [MI-18] showed a concentration for half-maximal inhibition (IC50) in test [2] of 0.526 µM.

In turn, `COc1ccc(/C=C/C(=O)N2C[C@@H]3CCC[C@H]3[C@@H]2C(=O)N[C@H](C=O)C[C@@H]2CCNC2=O)c(OC)c1` [MI-19] came in with a half-maximal inhibitory concentration (IC50) in test [2] of 0.196 µM. Regarding `CNc1ccc(/C=C/C(=O)N2C[C@@H]3CCC[C@H]3[C@@H]2C(=O)N[C@H](C=O)C[C@@H]2CCNC2=O)cc1` [MI-20], it took 0.375 µM to reach half-maximal inhibition in test [2] (IC50). `O=C[C@H](C[C@@H]1CCNC1=O)NC(=O)[C@H]1[C@@H]2CCC[C@H]2CN1C(=O)CCc1ccc(F)c(F)c1` [MI-22] returned an IC50 in test [2] of 0.017 µM.

As to `CN(C)c1ccc(CCC(=O)N2C[C@@H]3CCC[C@H]3[C@@H]2C(=O)N[C@H](C=O)C[C@@H]2CCNC2=O)cc1` [MI-24], in test [2], the half-inhibitory concentration (IC50) came out at 0.378 µM. In the case of `COc1ccc(OCC(=O)N2C[C@@H]3CCC[C@H]3[C@@H]2C(=O)N[C@H](C=O)C[C@@H]2CCNC2=O)cc1` [MI-25], half-maximal inhibition in test [2] (IC50) required 0.036 µM.

Turning to `COc1ccc(OC(C)C(=O)N2C[C@@H]3CCC[C@H]3[C@@H]2C(=O)N[C@H](C=O)C[C@@H]2CCNC2=O)cc1` (stereo partly specified) [MI-26], the IC50 in test [2] came to 0.069 µM. The same measure, in the same setting: under `O=C[C@H](C[C@@H]1CCNC1=O)NC(=O)[C@H]1[C@@H]2CCC[C@H]2CN1C(=O)COc1ccc2c(c1)OCCO2` [MI-27] stands 0.094 µM. Consider `O=C[C@H](C[C@@H]1CCNC1=O)NC(=O)[C@H]1[C@@H]2CCC[C@H]2CN1C(=O)COc1ccc(Cl)cc1` [MI-28], for which the EC50 in test [1] came to 0.042 µM; in test [3], 0.0022 µM. For `O=C[C@H](C[C@@H]1CCNC1=O)NC(=O)[C@H]1[C@@H]2CCC[C@H]2CN1C(=O)COc1ccc(Cl)cc1F` [MI-29], the midpoint of inhibition in test [2], the IC50, lay at 0.035 µM. `O=C[C@H](C[C@@H]1CCNC1=O)NC(=O)[C@H]1[C@@H]2CCC[C@H]2CN1C(=O)COc1ccc(Cl)c(Cl)c1` [MI-31]: the EC50 in test [1] stood at 0.062 µM; in test [3], 0.0004 µM. Moreover, inhibition in test [2] was half-maximal at 0.03 µM (IC50). `Cc1cc(Cl)ccc1OCC(=O)N1C[C@@H]2CCC[C@H]2[C@@H]1C(=O)N[C@H](C=O)C[C@@H]1CCNC1=O` [MI-32]: the IC50 in test [2] was determined as 0.02 µM.

As a reminder, the EC50 is the concentration needed to bring the measured effect to its halfway point. What is called IC50 is the concentration needed to halve the response being measured.
